From PMC2912498 (Cancer research, 2010)
Like-named read-outs stand apart in the source and are kept apart here.

Tests used:
[1] = system: GSK-3 dependent Tau phosphorylation; assay type: cell-based, human
[2] = system: TCF-dependent transcription; assay type: cell-based, human
[3] = system: U2OS GFP-β-catenin human osteosarcoma cells; assay type: cell-based
CCD841Co (Control) = assay type: cell-based, human; details: read-out: CCD841Co (Control) GI50; 96h; >> = no growth inhibition at the highest concentration tested
free β-catenin [4] = assay type: cell-based, human; details: SW480 cells
free β-catenin [5] = assay type: cell-based, human
SW480 (APC mutant) = assay type: cell-based, human; details: read-out: SW480 (APC mutant) GI50; 72h
[6] = system: HCT116 (oncogenic β-catenin); assay type: cell-based, human; details: read-out: HCT116 (oncogenic β-catenin) GI50; 72h
β-catenin [7] = assay type: cell-based, mouse
HT29 (APC mutant) = assay type: cell-based, human; details: read-out: HT29 (APC mutant) GI50; 72h
[8] = system: TCF-dependent transcription; assay type: cell-based, human; details: read-out: Reporter IC50; 7dF3 reporter activity
SNU475 (Axin mutant) = assay type: cell-based, human; details: read-out: SNU475 (Axin mutant) GI50; 96h
[9] = system: HCT116 human colon cancer cell; assay type: cell-based
survivin promoter = assay type: cell-based, human
β-catenin [10] = assay type: cell-based, mouse; remark: listed apart in the source
Zebrafish embryos = assay type: in vivo; details: added at the 16-cell stage
PP2A = assay type: biochemical
LEF-1 mRNA = assay type: cell-based, human
[11] = system: TCF-dependent transcription; assay type: cell-based, human; remark: listed apart in the source
Xenopus laevis embryos = assay type: in vivo; details: added at the 4-16 cell stage
recombinant GSK3 = assay type: biochemical
c-myc promoter = assay type: cell-based, human
PP1 = assay type: biochemical
Tyrosine Phosphatase = assay type: biochemical

## 6-bromoindirubin-3′-oxime [BIO, reference compound]
[1]; HEK293
  GSK-3 dependent Tau phosphorylation on Thr-181: reduce GSK-3 dependent Tau phosphorylation on Thr-181

## CCT031374
[2]
  TCF-dependent transcription (Topflash): reduced TCF-dependent transcription
[3]
  formation of GFP-β-catenin aggregates: induced formation of GFP-β-catenin aggregates
CCD841Co (Control)
  GI50: > 44 µM
Free β-catenin [4]
  free β-catenin levels: not altered
Free β-catenin [5]
  free β-catenin levels: blocked free β-catenin levels
SW480 (APC mutant)
  GI50: 13.2 µM
[6]
  GI50: 13.9 µM
β-catenin [7]
  time to increased β-catenin degradation (pulse chase): ≤ 10 min
HT29 (APC mutant)
  GI50: 11.5 µM
[8]
  IC50: 6.1 µM
SNU475 (Axin mutant)
  GI50: 9.6 µM
[9]
  apoptosis shown by caspase 3 activity: inducing apoptosis
  caspase activity relative to the other compounds: almost two times more caspase activity than the other compounds
Survivin promoter
  activity against survivin promoter luciferase reporter: showed activity
β-catenin [10]
  BIO-induced accumulation / levels of β-catenin: prevented BIO-induced accumulation of β-catenin
  degradation of endogenous wild-type β-catenin stabilized by BIO: increased the degradation
  degradation of β-catenin stabilized by Wnt-3A and LiCl: resistant to degradation
  degradation of β-catenin stabilized with MG132: not degraded
  nuclear and cytosolic β-catenin pools: reduction in both nuclear and cytosolic β-catenin pools
  time to reduce levels of BIO-stabilized β-catenin: ≤ 60 min
  β-catenin N-terminal phosphorylation: did not increase β-catenin N-terminal phosphorylation
  β-catenin degradation products characteristic of calpain-induced proteolysis: failed to induce β-catenin degradation products
Zebrafish embryos
  effect on Zebrafish embryo development: did not show clear responses
[1]; HEK293, BIO plus 20μM CCT031374
  reversal of the BIO block of Tau phosphorylation: largely failed to reduce the BIO block of Tau phosphorylation
PP2A
  PP2A enzyme activity: no activity
LEF-1 mRNA
  endogenous LEF-1 mRNA levels: showed activity against endogenous LEF-1 mRNA levels
[11]
  TCF-dependent transcription induced by stabilized β-catenin (N-terminal deletion of 89 amino acids): blocked TCF-dependent transcription
Xenopus laevis embryos
  effect on Xenopus embryo development: did not show clear responses
Recombinant GSK3
  inhibition of recombinant GSK3: did not inhibit
c-myc promoter
  activity against c-myc promoter luciferase reporter: showed activity
PP1
  PP1 enzyme activity: no activity
Tyrosine Phosphatase
  Tyrosine Phosphatase enzyme activity: no activity
